From the C3SDB collision cross section collection
“And” between values parts separate entries of the source, which are not always exact repeats. Identical values can stand only once. One block for each molecule: values may come before it.

Tests used:
[1] = instrument: DT, stepped-field
[2] = instrument: DT, single field, calibrated with Agilent tune mix (Agilent)
[3] = instrument: DT, single field, calibrated with Agilent tune mix (Agilent); remark: listed apart in the source

Compound: CCCCC[C@H](O)/C=C/[C@@H]1[C@@H](C/C=C\CCCC(=O)O)[C@@H](O)C[C@H]1O [Prostaglandin F2a]
collision cross section (N2) ([1]; [M+Na]+): 205.7 Å²

Compound: CCCCCCCCCCCCCCCC(=O)N[C@@H](COP(=O)([O-])OCC[N+](C)(C)C)[C@H](O)CCCCCCCCCCCCCCC [SM(34:0)]
collision cross section (N2) ([2]; [M+HCOO]-): 282.3 Å²
collision cross section (N2) ([2]; [M+H]+): 285 Å²
collision cross section (N2) ([2]; [M+Na]+): 284.8 Å²

Compound: CCCCCCCCCCCCCCCC(=O)OC[C@@H](O)COP(=O)(O)OC[C@H](N)C(=O)O [LPS(16:0)]
collision cross section (N2) ([2]; [M-H]-): 216.4 Å²

Compound: CO[C@H]1/C=C/O[C@@]2(C)Oc3c(C)c(O)c4c(c3C2=O)C(=O)/C(=C/NN2CCN(C)CC2)C(=C4O)NC(=O)/C(C)=C\C=C\[C@H](C)[C@H](O)[C@@H](C)[C@@H](O)[C@@H](C)[C@H](OC(C)=O)[C@@H]1C [Rifampicin]
collision cross section (N2) ([1]; [M+H]+): 287.13 Å²
collision cross section (N2) ([1]; [M+Na]+): 285.07 Å²

Compound: C[S+](CC[C@H](N)C(=O)[O-])C[C@H]1O[C@@H](n2cnc3c(N)ncnc32)[C@H](O)[C@@H]1O (stereo partly drawn) [S-Adenosyl-L-methionine]
collision cross section (N2) ([1]; [M+H]+): 186.46 Å²

Compound: CCCCCCCCCCCCCCCCC(=O)OC[C@@H](O)COP(=O)(O)OCCN [LPE(17:0)]
collision cross section (N2) ([2]; [M+H]+): 217.1 Å²
collision cross section (N2) ([2]; [M-H]-): 210.1 Å²

Compound: CCCCCCCCCCCCC=CC[C@@H](O)[C@H](CO)NC(=O)CCCCCCCCCCCCCCCCCCCCCCCC [Cer(43:1)]
collision cross section (N2) ([2]; [M+H]+): 282 Å²

Compound: CCCCC/C=C\C/C=C\CCCCCCCC(=O)OC[C@@H](O)COP(=O)([O-])OCC[N+](C)(C)C [LPC(18:2)]
collision cross section (N2) ([2]; [M+HCOO]-): 235.2 Å²
collision cross section (N2) ([2]; [M+H]+): 226.8 Å²
collision cross section (N2) ([2]; [M+Na]+): 231.9 Å²

Compound: CCCCCCCCCCCCC=CC[C@@H](O)[C@H](COP(=O)([O-])OCC[N+](C)(C)C)NC(=O)CCCCCCCCCCCCCC [SM(33:1)]
collision cross section (N2) ([2]; [M+H]+): 279.2 Å²

Compound: CCCCCCCCCCCCC=CCC(=O)N[C@@H](COP(=O)([O-])OCC[N+](C)(C)C)[C@H](O)CC=CCCCCCCCCCCCC [SM(34:2)]
collision cross section (N2) ([2]; [M+H]+): 281.4 Å²

Compound: CCCCCCCCCCCCC=CC[C@@H](O)[C@H](CO)NC(=O)CC=CCCCCCCCCCCCCCCCCCC [Cer(40:2)]
collision cross section (N2) ([2]; [M+H]+): 270.3 Å²
collision cross section (N2) ([2]; [M+Na]+): 271.4 Å²
collision cross section (N2) ([2]; [M-H]-): 259.8 Å²

Compound: CCCCCCCCCCCCC=CC[C@@H](O)[C@H](CO)NC(=O)CC=CCCCCCCCCCCCCCCCCCCCCCC [Cer(44:2)]
collision cross section (N2) ([2]; [M+H]+): 283.5 Å²

Compound: CCCCCCCCCCCCCCCCC(=O)OC[C@@H](O)COP(=O)(O)O[C@H]1C(O)C(O)C(O)[C@@H](O)C1O (stereo partly specified) [LPI(17:0)]
collision cross section (N2) ([2]; [M-H]-): 232.6 Å²

Compound: CCCCCCCCCCCCCCCCCC(=O)N[C@@H](CO)[C@H](O)CCCCCCCCCCCCCCC [Cer(36:0)]
collision cross section (N2) ([2]; [M+HCOO]-): 259 Å²
collision cross section (N2) ([2]; [M+H]+): 262 Å²
collision cross section (N2) ([2]; [M+Na]+): 267.7 Å²
collision cross section (N2) ([2]; [M-H]-): 249 Å²

Compound: CCCCCCCCCCCCC=CC[C@@H](O)[C@H](CO)NC(=O)CCCCCCCCCCCCCCCCCC [Cer(37:1)]
collision cross section (N2) ([2]; [M+HCOO]-): 258.9 Å²
collision cross section (N2) ([2]; [M+H]+): 263.4 Å²
collision cross section (N2) ([2]; [M+Na]+): 269.8 Å²

Compound: NC(=O)c1ccc[n+]([C@@H]2O[C@H](COP(=O)([O-])OP(=O)(O)OC[C@H]3O[C@@H](n4cnc5c(N)ncnc54)[C@H](O)[C@@H]3O)[C@@H](O)[C@H]2O)c1 [Nicotinamide adenine dinucleotide (NAD)]
collision cross section (N2) ([3]; [M+H]+): 226.7 Å²

Compound: CCCCCCCCCCCCCCCCCCCC(=O)N[C@@H](CO)[C@H](O)CCCCCCCCCCCCCCC [Cer(38:0)]
collision cross section (N2) ([2]; [M+HCOO]-): 265.2 Å²
collision cross section (N2) ([2]; [M+H]+): 267.9 Å²

Compound: Nc1nc(=O)c2c([nH]1)NCC(CNc1ccc(C(=O)N[C@@H](CCC(=O)O)C(=O)O)cc1)N2C=O (stereo partly specified) [Folinic acid]
collision cross section (N2) ([3]; [M+H]+): 196.9 Å²
collision cross section (N2) ([3]; [M-H]-): 196.26 Å²

Compound: COC1=C(OC)C(=O)C(C/C=C(\C)CCC=C(C)C)=C(C)C1=O [Ubiquinone-2]
collision cross section (N2) ([3]; [M+H]+): 174.3 Å²

Compound: O=C(O)c1ccc([O-])c(O)c1 [3,4-Dihydroxybenzoate]
collision cross section (N2) ([3]; [M-H]-): 120.45 Å²

Compound: NC(CSCC[C@H](N)C(=O)O)C(=O)O (stereo partly specified) [Allocystathionine]
collision cross section (N2) ([3]; [M+H]+): 146.7 Å²

Compound: Nc1nc(=O)c2ncn([C@H]3C[C@H](O)[C@@H](COP(=O)(O)OP(=O)(O)OP(=O)(O)O)O3)c2[nH]1 [Deoxyguanosine triphosphate]
collision cross section (N2) ([3]; [M-H]-): 189.26 Å²

Compound: O=C(O)C#Cc1ccccc1 [Phenylpropiolic acid]
collision cross section (N2) ([3]; [M+H-H2O]+): 121.2 Å²

Compound: O=C(O)[C@@H](O)[C@@H](O)[C@H](O)[C@@H](O)C(=O)O [D-Glucarate]
collision cross section (N2) ([3]; [M-H]-): 130.5 Å² and 130.92 Å²

Compound: NC(Cc1ccccc1O)C(=O)O (racemic) [DL-O-tyrosine]
collision cross section (N2) ([3]; [M+H]+): 141.4 Å²
collision cross section (N2) ([3]; [M-H]-): 134.25 Å²

Compound: Cc1cc2nc[nH]c2cc1C [Dimethylbenzimidazole]
collision cross section (N2) ([3]; [M+H]+): 129.9 Å²
collision cross section (N2) ([3]; [M-H]-): 127.73 Å²

Compound: CCCCCCCCCCCCC=CC[C@@H](O)[C@H](CO)NC(=O)CC=CCCCCCCCCCCCCCCCC [Cer(38:2)]
collision cross section (N2) ([2]; [M+H]+): 262.4 Å²
collision cross section (N2) ([2]; [M+Na]+): 262.1 Å²

Compound: N[C@@H](CCOP(=O)(O)O)C(=O)O [O-Phospho-L-homoserine]
collision cross section (N2) ([3]; [M+Na]+): 141.6 Å²

Compound: CCCCCCCCCCCCCCCC/C=C\OC[C@H](COP(=O)([O-])OCC[N+](C)(C)C)OC(=O)CCCCCCCCCCCCCCC [PC(p34:0)]
collision cross section (N2) ([2]; [M+H]+): 288.3 Å²

Compound: CC(C)(CO)[C@@H](O)C(=O)NCCC(=O)NCCS [Pantetheine]
collision cross section (N2) ([3]; [M+H-H2O]+): 164.6 Å²
collision cross section (N2) ([3]; [M+Na-2H]-): 164.94 Å²

The remaining lines, values ahead:

collision cross section (N2) ([2]; [M+NH4]+): 295.6 Å²
collision cross section (N2) ([2]; [M-H]-): 285.3 Å²
Compound: CCCCC/C=C\C/C=C\CCCCCCCCCCCC(=O)O[C@H](COC(=O)CCCCCCCCCCCC)COP(=O)(O)O[C@H]1C(O)C(O)C(O)[C@@H](O)C1O (stereo partly specified) [PI(35:2)]

collision cross section (N2) ([2]; [M+H]+): 290.4 Å²
Compound: CCCCC/C=C\C/C=C\C/C=C\C/C=C\CCCCCC(=O)O[C@H](COC(=O)CCCCCCCCCCCCCC)COP(=O)([O-])OCC[N+](C)(C)C [PC(37:4)]

collision cross section (N2) ([2]; [M+NH4]+): 336 Å²
Compound: CC/C=C\C/C=C\C/C=C\C/C=C\C/C=C\CCCC(=O)O[C@H](COC(=O)CCCCCCC/C=C\C/C=C\C/C=C\CC)COC(=O)CCCCCCCCC/C=C\CCCCCCCCCC [TG(60:9)]

collision cross section (N2) ([2]; [M-H]-): 296.1 Å²
Compound: CCCCCC/C=C\CCCCCCCC(=O)OC[C@H](COP(=O)(O)O[C@H]1C(O)C(O)C(O)[C@@H](O)C1O)OC(=O)CCCCCCCCCCCCCCCCCCCCC (stereo partly specified) [PI(38:1)]

collision cross section (N2) ([2]; [M+NH4]+): 337.5 Å²
Compound: CC/C=C\C/C=C\C/C=C\C/C=C\C/C=C\C/C=C\CCC(=O)OC[C@@H](COC(=O)CCCCCCC/C=C\C/C=C\C/C=C\CC)OC(=O)CCCCCCCC/C=C\C/C=C\C/C=C\CCCCC [TG(62:12)]

collision cross section (N2) ([2]; [M+H]+): 300.9 Å²
Compound: CCCCC/C=C\C/C=C\C/C=C\C/C=C\CCCCCC(=O)O[C@H](CO/C=C\CCCCCCCCCCCCCCCC)COP(=O)([O-])OCC[N+](C)(C)C [PC(p40:4)]

collision cross section (N2) ([2]; [M+H]+): 280 Å²
collision cross section (N2) ([2]; [M-H]-): 273.1 Å²
Compound: CCCCCCCC/C=C\CCCCCCCCCC(=O)O[C@H](COC(=O)CCCCCCCCCCCCC)COP(=O)(O)OC[C@H](N)C(=O)O [PS(34:1)]

collision cross section (N2) ([2]; [M+H]+): 231.8 Å²
Compound: CCCCCCCC/C=C\CCCCCCCCCC(=O)OC[C@@H](O)COP(=O)(O)OC[C@H](N)C(=O)O [LPS(20:1)]

collision cross section (N2) ([2]; [M+NH4]+): 298.1 Å²
collision cross section (N2) ([2]; [M-H]-): 286.9 Å²
Compound: CCCCCCCC/C=C\CCCCCCCCCC(=O)O[C@H](COC(=O)CCCCCCCCCCCCCC)COP(=O)(O)O[C@H]1C(O)C(O)C(O)[C@@H](O)C1O (stereo partly specified) [PI(35:1)]

collision cross section (N2) ([2]; [M+H]+): 274.6 Å²
Compound: CCCCCCCCCCCCCC/C=C\OC[C@H](COP(=O)(O)OCCN)OC(=O)CCCCCCCCCCCCCCCCC [PE(p34:0)]

collision cross section (N2) ([2]; [M-H]-): 216.4 Å²
Compound: CCCCC/C=C\C/C=C\CCCCCCCCCC(=O)OC[C@@H](O)COP(=O)(O)OCCN [LPE(20:2)]

collision cross section (N2) ([2]; [M+NH4]+): 277.7 Å²
Compound: CCCCC/C=C\C/C=C\CCCCCCCCCC(=O)O[C@@H](CO)COC(=O)CCCCCCCCCCCCCCCCCCC [DG(40:2)]

collision cross section (N2) ([2]; [M-H]-): 221.5 Å²
Compound: CCCCC/C=C\C/C=C\C/C=C\CCCCCCC(=O)OC[C@@H](O)COP(=O)(O)OC[C@H](N)C(=O)O [LPS(20:3)]

collision cross section (N2) ([2]; [M+H]+): 281.6 Å²
collision cross section (N2) ([2]; [M-H]-): 268.4 Å²
Compound: CCCCCCCCCCCCCCCC/C=C\OC[C@H](COP(=O)(O)OCCN)OC(=O)CCCCCCCCCCCCCCCCC [PE(p36:0)]

collision cross section (N2) ([2]; [M+H]+): 298.9 Å²
collision cross section (N2) ([2]; [M+NH4]+): 300.2 Å²
collision cross section (N2) ([2]; [M+Na]+): 297.6 Å²
Compound: CC/C=C\C/C=C\C/C=C\C/C=C\CCCCC(=O)OC[C@H](COP(=O)(O)O[C@H]1C(O)C(O)C(O)[C@@H](O)C1O)OC(=O)CCCCCCCCCCCCCCCCCC (stereo partly specified) [PI(37:4)]

collision cross section (N2) ([2]; [M+NH4]+): 324.6 Å²
Compound: CCCCC/C=C\C/C=C\C/C=C\C/C=C\CCCCCC(=O)OC[C@@H](COC(=O)CCCCCCCCCCCCCCC)OC(=O)CCCCCCC/C=C\CCCCCCC [TG(55:5)]

collision cross section (N2) ([2]; [M+NH4]+): 339 Å²
Compound: CCCCC/C=C\C/C=C\C/C=C\CCCCCCC(=O)O[C@H](COC(=O)CCCC/C=C\C/C=C\C/C=C\CCCCC)COC(=O)CCCCCCCCC/C=C\CCCCCCCCCC [TG(60:7)]

collision cross section (N2) ([2]; [M+NH4]+): 301.4 Å²
collision cross section (N2) ([2]; [M+Na]+): 298.9 Å²
collision cross section (N2) ([2]; [M-H]-): 290.1 Å²
Compound: CCCCC/C=C\C/C=C\CCCCCCCCCCCC(=O)O[C@H](COC(=O)CCCCCCC/C=C\CCCCC)COP(=O)(O)O[C@H]1C(O)C(O)C(O)[C@@H](O)C1O (stereo partly specified) [PI(37:3)]

collision cross section (N2) ([2]; [M+NH4]+): 271.6 Å²
Compound: CCCCCCCC/C=C\CCCCCCCCCC(=O)O[C@@H](CO)COC(=O)CCCCCCC/C=C\CCCCCCCC [DG(38:2)]
